The target in one test is T1, 5HT2C receptors (Homo sapiens, UniProt P28335).
T1 sequence (P28335 33-458): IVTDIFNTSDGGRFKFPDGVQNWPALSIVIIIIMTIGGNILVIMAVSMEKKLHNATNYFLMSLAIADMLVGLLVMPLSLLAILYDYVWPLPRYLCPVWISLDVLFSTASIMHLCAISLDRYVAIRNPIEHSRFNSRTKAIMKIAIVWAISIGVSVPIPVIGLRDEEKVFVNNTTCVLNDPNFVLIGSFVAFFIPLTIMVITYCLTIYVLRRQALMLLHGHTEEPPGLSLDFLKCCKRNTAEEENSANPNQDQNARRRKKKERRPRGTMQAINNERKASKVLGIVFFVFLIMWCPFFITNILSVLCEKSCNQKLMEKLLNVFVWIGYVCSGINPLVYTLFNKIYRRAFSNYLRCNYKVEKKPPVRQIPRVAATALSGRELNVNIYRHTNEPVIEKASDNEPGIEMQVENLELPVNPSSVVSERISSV
Description: Human 5-HT2C functional high throughput screening assay in CHO-K1 cells (calcium flux). Further details: expressed in transfected cells; host or cells: CHO-K1 cells; call rule not given here. It is filed as cell-based. The conditions noted are these: for EC50: CHO-K1 cells, calcium flux; for Emax: CHO-K1, 5-HT2C, maximum functional response as percentage relative to the effect of serotonin. How it is done:
(§1) (iii) Human 5-HT2C and 5-HT2B Functional High Throughput Screening Assays in CHO-K1 Cells
(§2) CHO-K1 cells over-expressing 5HT2C or 5HT2B receptors were grown in 1272 cm^2 flasks to 70-80% confluency in UltraCHO media (Lonza, Walkersville, Md.) supplemented with 1% dialyzed fetal bovine serum (FBS), 250 μg/mL zeocin, 100 U/mL penicillin and 100 μg/mL streptomycin, and 400 μg/mL geneticin. The cells were dissociated from the flasks using 0.05% trypsin, resuspended in Recovery™ cell culture freezing medium (Invitrogen, Carlsbad, Calif.) and stored in liquid nitrogen until use. The calcium flux experiments were done using frozen cells. The cells were diluted in media containing 1% dialyzed FBS and 100 U/mL penicillin and 100 μg/mL streptomycin and plated into 384-well poly-D-Lysine coated plates (15,000 cells/well). Then the plates were incubated overnight in a cell incubator at 37° C., 5% CO2. On the next day, the growth media was replaced with media without FBS and further incubated overnight. On day three, the changes in intracellular Ca^2+ were determined using calcium sensitive fluorescent dye, Ca4 (MDS Analytical Technologies, Sunnyvale, Calif.) by loading 15 μL of diluted dye in Hank's Balanced Salt Solution and 20 mM Hepes buffer (pH 7.4) with final concentration of 2.5 mM probenecid into the cells containing media. Then the cells were incubated at room temperature for 60 minutes in dark.
(§3) After incubation, the cell plates were transferred to FLIPR™ (MDS) and their fluorescence measurements were read at an excitation wavelength of 480 nm and an emission wavelength of 530 nm at 25° C. The baseline fluorescence was measured for the first 10 seconds and then 15 μL of 4× concentration of serotonin/test compound was added to the cells. The fluorescence intensity was captured every second for the first 1 minute followed by every 5 seconds for an additional 2 minutes. The increase in fluorescent response by a test compound was normalized to the response of serotonin and used to determine agonist activity. The concentration response of compounds was done from a starting concentration of 10 μM, 1:10 dilution across 6 wells with a final dimethyl sulfoxide concentration of 0.2% and was fitted using a 4-parameter logistic equation. The concentration at which a compound exerts half its maximal effect was named as ‘effective concentration 50’ or ‘EC50’. Emax is the maximum functional response or efficacy expressed as a percentage relative to the effect of serotonin.

For a further test, the target named is T2, 5HT2B receptors (Homo sapiens, UniProt P41595).
T2 construct: expressed in transfected cells; host or cells: CHO-K1 cells
Put plainly: Human 5-HT2B functional high throughput screening assay in CHO-K1 cells (calcium flux). It is filed as cell-based. The conditions noted are these: for EC50: CHO-K1 cells, calcium flux. Here is the method:
as §1, §2, §3

Where [1] appears, read: 5-HT2C agonist activity, read-out: EC50.
The mark [2] stands for this setting: 5-HT2B agonist activity, read-out: EC50.
[3] abbreviates: 5-HT2B, maximum functional response as percentage relative to the effect of serotonin.

Molecules are shown by their SMILES. Like-named read-outs stand apart in the source and are kept apart here. A value given as a limit tells only on which side of the number the result lay.

The text below walks through data of patent US8846951B2 (AbbVie Inc., priority 2009, dated 2014).

T2 sequence (P41595 whole entry): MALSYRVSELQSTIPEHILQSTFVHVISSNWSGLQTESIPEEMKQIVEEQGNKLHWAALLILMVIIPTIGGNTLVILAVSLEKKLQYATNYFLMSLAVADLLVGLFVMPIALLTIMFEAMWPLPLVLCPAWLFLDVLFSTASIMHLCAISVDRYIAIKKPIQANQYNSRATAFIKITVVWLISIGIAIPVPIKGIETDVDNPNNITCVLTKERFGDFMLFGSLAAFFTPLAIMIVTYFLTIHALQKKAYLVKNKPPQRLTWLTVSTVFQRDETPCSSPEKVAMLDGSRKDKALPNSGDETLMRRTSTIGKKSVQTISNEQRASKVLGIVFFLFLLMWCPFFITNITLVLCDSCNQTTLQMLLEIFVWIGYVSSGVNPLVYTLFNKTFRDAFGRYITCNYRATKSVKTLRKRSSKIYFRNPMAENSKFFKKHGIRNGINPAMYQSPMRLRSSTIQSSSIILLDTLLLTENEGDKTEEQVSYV

Take `c1cnc2c(c1)C1CNCC1CCO2` (mixture of isomers) [Example 260, 2,3,3a,4,5,10b-Hexahydro-1H-pyrrolo[3′,4′:4,5]oxepino[2,3-b]pyridine]: the EC50 on 5HT2C receptors (setting [1]) came out at 1000 nM; at 5HT2B receptors (setting [2]), 3000 nM. Also, the Emax at 5HT2C receptors is more than 120%; at 5HT2B receptors (CHO-K1) it was 45%.

With `C[C@H](Cc1ccccc1)Oc1ccc2c(c1)C(=O)NC[C@H]1CNC[C@H]21` [Example 181, (3aR,10bS)-8-((R)-1-Phenylpropan-2-yloxy)-1,2,3,3a,4,5-hexahydrobenzo[e]pyrrolo[3,4-c]azepin-6(10bH)-one], the figures for the EC50 on 5HT2C receptors (setting [1]) and on 5HT2B receptors (setting [2]) were 10 nM and more than 10000 nM, respectively. Besides, the values for the maximum response (Emax) on 5HT2C receptors (read-out: Emax) and at 5HT2B receptors (setting [3]) were more than 120% and “inactive”, respectively.

As to `CN1C[C@@H]2CNC(=O)c3cc(OCc4ccccc4)ccc3[C@H]2C1` [Example 274, (3aS,10bS)-8-(Benzyloxy)-2-methyl-1,2,3,3a,4,5-hexahydrobenzo[e]pyrrolo[3,4-c]azepin-6(10bH)-one], the Emax is more than 120% at 5HT2C receptors and “inactive” on 5HT2B receptors (setting [3]). Besides, the half-maximal effective concentration (EC50) at 5HT2C receptors (EC50, 5-HT2C agonist activity) was 3 nM; at 5HT2B receptors (EC50, 5-HT2B agonist activity), more than 10000 nM.

Consider `c1ccc2c(c1)OCC[C@H]1CNC[C@H]21` [Example 270, (3aR,10bS)-2,3,3a,4,5,10b-Hexahydro-1H-[1]benzoxepino[4,5-c]pyrrole], for which the Emax on 5HT2C receptors was more than 120%; on 5HT2B receptors (CHO-K1), 50%. For the same molecule, the 50% effective concentration (EC50) on 5HT2C receptors (EC50, 5-HT2C agonist activity) is 10 nM; at 5HT2B receptors (EC50, 5-HT2B agonist activity) it was 200 nM.

On to `CC(C)COc1cccc(-c2ccc3c(c2)C(=O)NC[C@@H]2CN(C)C[C@@H]32)c1` (relative stereo) [Example 134, Trans-8-(3-isobutoxyphenyl)-2-methyl-1,2,3,3a,4,5-hexahydrobenzo[e]pyrrolo[3,4-c]azepin-6(10bH)-one], for which the values for the EC50 at 5HT2C receptors (setting [1]) and at 5HT2B receptors (setting [2]) were 60 nM and more than 10000 nM, respectively. In addition, the maximum response (Emax) on 5HT2C receptors (read-out: Emax) was more than 120%; at 5HT2B receptors (setting [3]), “inactive”.

In the case of `O=C1NC[C@@H]2CNC[C@H]2c2cc3ccccc3cc21` (relative stereo) [Example 257, Trans-1,2,3,3a,4,5-hexahydronaphtho[2,3-e]pyrrolo[3,4-e]azepin-6(12bH)-one], the EC50 was 20 nM on 5HT2C receptors (setting [1]) and 60 nM on 5HT2B receptors (setting [2]). Also, the maximal effect (Emax) at 5HT2C receptors (read-out: Emax) is 120%; on 5HT2B receptors (CHO-K1, 5-HT2B, maximum functional response as percentage relative to the effect of serotonin, read-out: Emax) it was 40%.

For the molecule `O=S(=O)(c1cccc(Cl)c1)N1Cc2cccnc2[C@@H]2CNC[C@H]2C1` (relative stereo) [Example 359, Trans-6-[(3-chlorophenyl)sulfonyl]-5,6,7,7a,8,9,10,10a-octahydropyrido[3,2-c]pyrrolo[3,4-e]azepine], the values for the Emax on 5HT2C receptors and on 5HT2B receptors (CHO-K1) were 80% and 30%, respectively. The concentration giving a half-maximal response (EC50) at 5HT2C receptors (EC50, 5-HT2C agonist activity) turned out to be 100 nM; on 5HT2B receptors (EC50, 5-HT2B agonist activity), 500 nM.

`CC(C)CCOc1ccc2c(c1)C(=O)NC[C@@H]1CN(C)C[C@@H]21` (relative stereo) [Example 171, Trans-8-(isopentyloxy)-2-methyl-1,2,3,3a,4,5-hexahydrobenzo[e]pyrrolo[3,4-c]azepin-6(10bH)-one]: the maximum response (Emax) on 5HT2C receptors was more than 120%; at 5HT2B receptors (setting [3]), “inactive”. In addition, the EC50 at 5HT2C receptors (EC50, 5-HT2C agonist activity) is 30 nM; on 5HT2B receptors (EC50, 5-HT2B agonist activity), more than 10000 nM.

For `CN1C[C@H]2CNC(=O)c3cc(-c4ccsc4Cl)ccc3[C@@H]2C1` (relative stereo) [Example 387, Trans-8-(2-chloro-3-thienyl)-2-methyl-2,3,3a,4,5,10b-hexahydropyrrolo[3,4-d][2]benzazepin-6(1H)-one], the EC50 on 5HT2C receptors (setting [1]) is 6 nM; at 5HT2B receptors (setting [2]) it was more than 10000 nM. Besides, the Emax was 95% at 5HT2C receptors (read-out: Emax) and “inactive” on 5HT2B receptors (setting [3]).

With `O=C1NC[C@@H]2CN(Cc3ccccc3)C[C@H]2c2ccc(O)cc21` (relative stereo) [Example 117, Trans-2-benzyl-8-hydroxy-1,2,3,3a,4,5-hexahydrobenzo[e]pyrrolo[3,4-c]azepin-6(10bH)-one], the figures for the EC50 on 5HT2C receptors (setting [1]) and on 5HT2B receptors (setting [2]) were 200 nM and more than 10000 nM, respectively. Further, the Emax at 5HT2C receptors (read-out: Emax) was more than 120%; on 5HT2B receptors (setting [3]) it was “inactive”.

Take `CNC(=O)c1ccc2c(c1)C(=O)NC[C@@H]1CN(C)C[C@@H]21` (relative stereo) [Example 125, Trans-N,2-dimethyl-6-oxo-1,2,3,3a,4,5,6,10b-octahydrobenzo[e]pyrrolo[3,4-c]azepine-8-carboxamide]: the concentration for a half-maximal effect (EC50) on 5HT2C receptors (setting [1]) was 2000 nM; at 5HT2B receptors (setting [2]) it was more than 10000 nM. Further, the Emax on 5HT2C receptors (read-out: Emax) is 90%; on 5HT2B receptors (setting [3]), “inactive”.

In the case of `COc1ccc(-c2ccc3c(c2)C(=O)NC[C@@H]2CN(C)C[C@@H]32)c(OC)c1` (relative stereo) [Example 303, Trans-8-(2,4-dimethoxyphenyl)-2-methyl-2,3,3a,4,5,10b-hexahydropyrrolo[3,4-d][2]benzazepin-6(1H)-one], the EC50 on 5HT2C receptors (setting [1]) is 40 nM; on 5HT2B receptors (setting [2]), more than 10000 nM. The Emax on 5HT2C receptors (read-out: Emax) was 100%; at 5HT2B receptors (setting [3]) it was “inactive”.

As for `CC(C)C(=O)N1CC[C@@H]2CNC[C@H]2c2ccccc21` (relative stereo) [Example 333, 1-[Trans-2,3,3a,4,5,10b-hexahydropyrrolo[3,4-d][1]benzazepin-6(1H)-yl]-2-methylpropan-1-one], the EC50 was 300 nM at 5HT2C receptors (setting [1]) and 2000 nM at 5HT2B receptors (setting [2]). In addition, the Emax is 90% on 5HT2C receptors and 40% at 5HT2B receptors (CHO-K1).

Regarding `CCC(C)Oc1ccc2c(c1)C(=O)NC[C@@H]1CNC[C@@H]21` (relative stereo) [Example 165, Trans-8-sec-butoxy-1,2,3,3a,4,5-hexahydrobenzo[e]pyrrolo[3,4-c]azepin-6(10bH)-one], the figures for the Emax at 5HT2C receptors and at 5HT2B receptors (setting [3]) were more than 120% and “inactive”, respectively. Moreover, the concentration giving a half-maximal response (EC50) is 80 nM at 5HT2C receptors (EC50, 5-HT2C agonist activity) and more than 10000 nM at 5HT2B receptors (EC50, 5-HT2B agonist activity).

Turning to `CN1C[C@H]2CNC(=O)c3cc(-c4ccc(C(F)(F)F)cc4)ccc3[C@@H]2C1` (relative stereo) [Example 79, Trans-2-methyl-8-(4-(trifluoromethyl)phenyl)-1,2,3,3a,4,5-hexahydrobenzo[e]pyrrolo[3,4-c]azepin-6(10bH)-one], the EC50 is 30 nM on 5HT2C receptors (setting [1]) and more than 10000 nM on 5HT2B receptors (setting [2]). The maximal response (Emax) on 5HT2C receptors (read-out: Emax) was more than 120%; on 5HT2B receptors (setting [3]), “inactive”.

Turning to `C[C@H](O)c1cccc(-c2ccc3c(c2)C(=O)NC[C@H]2CN(C)C[C@H]32)c1` [Example 293, (3aS,10bS)-8-{3-[(1S)-1-Hydroxyethyl]phenyl}-2-methyl-2,3,3a,4,5,10b-hexahydropyrrolo[3,4-d][2]benzazepin-6(1H)-one], the EC50 on 5HT2C receptors (setting [1]) amounted to 2 nM. For the same molecule, the Emax result at 5HT2B receptors (setting [3]) is “inactive”.

As for `COc1ccc2c(c1)[C@H]1CNC[C@@H]1CC=C2` (relative stereo) [Example 266, Trans-9-methoxy-1,2,3,3a,4,10b-hexahydrobenzo[3,4]cyclohepta[1,2-c]pyrrole], the Emax at 5HT2C receptors was more than 120%; at 5HT2B receptors (CHO-K1), 25%. Besides, the EC50 at 5HT2C receptors (EC50, 5-HT2C agonist activity) was 10 nM; on 5HT2B receptors (EC50, 5-HT2B agonist activity), 400 nM.

As for `CCS(=O)(=O)c1cccc(-c2ccc3c(c2)C(=O)NC[C@@H]2CN(C)C[C@@H]32)c1` (relative stereo) [Example 255, Trans-8-(3-(ethylsulfonyl)phenyl)-2-methyl-1,2,3,3a,4,5-hexahydrobenzo[c]pyrrolo[3,4-e]azepin-6(10bH)-one], the results for the concentration giving a half-maximal response (EC50) on 5HT2C receptors (setting [1]) and on 5HT2B receptors (setting [2]) were 30 nM and more than 10000 nM, respectively. Further, the figures for the maximal response (Emax) on 5HT2C receptors (read-out: Emax) and on 5HT2B receptors (setting [3]) were 90% and “inactive”, respectively.
